Test results reported in PubChem BioAssay AID2060485 (Molecular Pharmacology Branch, DTP, NCI, 2025).

System: A375 multi-cell spheroids with HUVEC/MSC, viability
Assay: Anticancer human tumor A375 cell line growth inhibition [GQUAD];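 also: spheroids exposed to compounds for seven days before readout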
Settings: for IC50: curve of first compound; for viability, T/C: stronger effect = lower value
How it was run: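 Multi-cell-type spheroids of tumor cells with HUVEC and mesenchymal stem cells, treated with drug combinations. Concentrations descend in half-log steps from near clinical Cmax, or from 10 microM where Cmax is unknown; viability read-out.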

[1] = second compound 0.0316 µM, first compound 0.0316 µM
[2] = second compound 0.0316 µM, first compound 0.1 µM
[3] = second compound 0.0316 µM, first compound 0.316 µM
[4] = second compound 0.0316 µM, first compound 1 µM
[5] = second compound 0.0316 µM, first compound 3.16 µM
[6] = second compound 0.0316 µM, first compound 10 µM
[7] = second compound 0.1 µM, first compound 0.0316 µM
[8] = second compound 0.1 µM, first compound 0.1 µM
[9] = second compound 0.1 µM, first compound 0.316 µM
[10] = second compound 0.1 µM, first compound 1 µM
[11] = second compound 0.1 µM, first compound 3.16 µM
[12] = second compound 0.1 µM, first compound 10 µM
[13] = second compound 0.316 µM, first compound 0.0316 µM
[14] = second compound 0.316 µM, first compound 0.1 µM
[15] = second compound 0.316 µM, first compound 0.316 µM
[16] = second compound 0.316 µM, first compound 1 µM
[17] = second compound 0.316 µM, first compound 3.16 µM
[18] = second compound 0.316 µM, first compound 10 µM
[19] = second compound 1 µM, first compound 0.0316 µM
[20] = second compound 1 µM, first compound 0.1 µM
[21] = second compound 1 µM, first compound 0.316 µM
[22] = second compound 1 µM, first compound 1 µM
[23] = second compound 1 µM, first compound 3.16 µM
[24] = second compound 1 µM, first compound 10 µM
[25] = second compound 3.16 µM, first compound 0.0316 µM
[26] = second compound 3.16 µM, first compound 0.1 µM
[27] = second compound 3.16 µM, first compound 0.316 µM
[28] = second compound 3.16 µM, first compound 1 µM
[29] = second compound 3.16 µM, first compound 3.16 µM
[30] = second compound 3.16 µM, first compound 10 µM
[31] = second compound 10 µM, first compound 0.0316 µM
[32] = second compound 10 µM, first compound 0.1 µM
[33] = second compound 10 µM, first compound 0.316 µM
[34] = second compound 10 µM, first compound 1 µM
[35] = second compound 10 µM, first compound 3.16 µM
[36] = second compound 10 µM, first compound 10 µM

## CCCS(=O)(=O)Nc1ccc(F)c(C(=O)c2c[nH]c3ncc(-c4ccc(Cl)cc4)cc23)c1F + Cc1[nH]c2ccc(F)cc2c1-c1nc2c3cccnc3c3ncccc3c2[nH]1
Second compound 0.0316 µM
  IC50: < 31.6 nM
Second compound 0.1 µM
  IC50: < 31.6 nM
Second compound 0.316 µM
  IC50: < 31.6 nM
Second compound 1 µM
  IC50: < 31.6 nM
Second compound 3.16 µM
  IC50: < 31.6 nM
Second compound 10 µM
  IC50: < 31.6 nM
[1]
  viability, T/C: 47.1%
[2]
  viability, T/C: 14.9%
[3]
  viability, T/C: 7.54%
[4]
  viability, T/C: 5.63%
[5]
  viability, T/C: 6%
[6]
  viability, T/C: 6.44%
[7]
  viability, T/C: 40.4%
[8]
  viability, T/C: 15.4%
[9]
  viability, T/C: 8.57%
[10]
  viability, T/C: 6.32%
[11]
  viability, T/C: 5.78%
[12]
  viability, T/C: 5.39%
[13]
  viability, T/C: 43.6%
[14]
  viability, T/C: 13.7%
[15]
  viability, T/C: 8.7%
[16]
  viability, T/C: 6.15%
[17]
  viability, T/C: 5.37%
[18]
  viability, T/C: 4.44%
[19]
  viability, T/C: 32%
[20]
  viability, T/C: 14.6%
[21]
  viability, T/C: 7.98%
[22]
  viability, T/C: 5.57%
[23]
  viability, T/C: 5%
[24]
  viability, T/C: 1.74%
[25]
  viability, T/C: 24.6%
[26]
  viability, T/C: 10%
[27]
  viability, T/C: 6.35%
[28]
  viability, T/C: 3.57%
[29]
  viability, T/C: 1.79%
[30]
  viability, T/C: 0.23%
[31]
  viability, T/C: 30.4%
[32]
  viability, T/C: 13.4%
[33]
  viability, T/C: 7.1%
[34]
  viability, T/C: 4.44%
[35]
  viability, T/C: 3.27%
[36]
  viability, T/C: 0.2%

## COc1cccc2c1C(=O)c1c(O)c3c(c(O)c1C2=O)CC(O)(C(=O)CO)CC3OC1CC(N)C(O)C(C)O1 (stereo unspecified) + Cc1[nH]c2ccc(F)cc2c1-c1nc2c3cccnc3c3ncccc3c2[nH]1
Second compound 0.0316 µM
  IC50: 271 nM
Second compound 0.1 µM
  IC50: 216 nM
Second compound 0.316 µM
  IC50: 286 nM
Second compound 1 µM
  IC50: 251 nM
Second compound 3.16 µM
  IC50: 288 nM
Second compound 10 µM
  IC50: 326 nM
[1]
  viability, T/C: 101%
[2]
  viability, T/C: 90.8%
[3]
  viability, T/C: 38.9%
[4]
  viability, T/C: 20.5%
[5]
  viability, T/C: 2.15%
[6]
  viability, T/C: 0.1%
[7]
  viability, T/C: 103%
[8]
  viability, T/C: 74.5%
[9]
  viability, T/C: 35.2%
[10]
  viability, T/C: 19.8%
[11]
  viability, T/C: 2.23%
[12]
  viability, T/C: 0.08%
[13]
  viability, T/C: 110%
[14]
  viability, T/C: 89.2%
[15]
  viability, T/C: 41.3%
[16]
  viability, T/C: 22.7%
[17]
  viability, T/C: 3.01%
[18]
  viability, T/C: 0.09%
[19]
  viability, T/C: 99.3%
[20]
  viability, T/C: 82.8%
[21]
  viability, T/C: 38.7%
[22]
  viability, T/C: 18.7%
[23]
  viability, T/C: 3.16%
[24]
  viability, T/C: 0.1%
[25]
  viability, T/C: 68.2%
[26]
  viability, T/C: 60.1%
[27]
  viability, T/C: 49.4%
[28]
  viability, T/C: 21.3%
[29]
  viability, T/C: 0.45%
[30]
  viability, T/C: 0.13%
[31]
  viability, T/C: 71.9%
[32]
  viability, T/C: 72%
[33]
  viability, T/C: 48.9%
[34]
  viability, T/C: 20.9%
[35]
  viability, T/C: 1.35%
[36]
  viability, T/C: 0.22%

## O=c1[nH]cc(F)c(=O)[nH]1 + Cc1[nH]c2ccc(F)cc2c1-c1nc2c3cccnc3c3ncccc3c2[nH]1
Second compound 0.0316 µM
  IC50: > 10000 nM
Second compound 0.1 µM
  IC50: > 10000 nM
Second compound 0.316 µM
  IC50: > 10000 nM
Second compound 1 µM
  IC50: > 10000 nM
Second compound 3.16 µM
  IC50: > 10000 nM
Second compound 10 µM
  IC50: > 10000 nM
[1]
  viability, T/C: 102%
[2]
  viability, T/C: 99%
[3]
  viability, T/C: 109%
[4]
  viability, T/C: 105%
[5]
  viability, T/C: 97.9%
[6]
  viability, T/C: 92.9%
[7]
  viability, T/C: 106%
[8]
  viability, T/C: 93.2%
[9]
  viability, T/C: 105%
[10]
  viability, T/C: 114%
[11]
  viability, T/C: 103%
[12]
  viability, T/C: 101%
[13]
  viability, T/C: 96%
[14]
  viability, T/C: 92.9%
[15]
  viability, T/C: 102%
[16]
  viability, T/C: 95.2%
[17]
  viability, T/C: 112%
[18]
  viability, T/C: 103%
[19]
  viability, T/C: 101%
[20]
  viability, T/C: 103%
[21]
  viability, T/C: 111%
[22]
  viability, T/C: 97.6%
[23]
  viability, T/C: 115%
[24]
  viability, T/C: 102%
[25]
  viability, T/C: 83.9%
[26]
  viability, T/C: 90.9%
[27]
  viability, T/C: 93.6%
[28]
  viability, T/C: 88.4%
[29]
  viability, T/C: 101%
[30]
  viability, T/C: 80.3%
[31]
  viability, T/C: 88.2%
[32]
  viability, T/C: 81.6%
[33]
  viability, T/C: 111%
[34]
  viability, T/C: 104%
[35]
  viability, T/C: 96.3%
[36]
  viability, T/C: 77.4%
